Where two headings read alike, the source gives them in different places.
Tests used:
Experiment in all cases: Kinase selectivity, scanMAX Kinase assay panel (DiscoverX), % control at 1 uM
Format in all cases: binding
[1] = molecular target: T1, scanMAX Kinase assay panel (Homo sapiens, UniProt P42336); details: PIK3CA; 1 uM; read-out: Percent Control (%)
T1 construct: purchased DiscoverX
Summary of the method: (§1)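 Activity was called for kinases showing % control under 35, calculated from compound signal relative to positive and negative controls. Each compound screened at 1 uM against the DiscoverX scanMAX panel.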

[2] = molecular target: T2, scanMAX Kinase assay panel (Homo sapiens, UniProt P04629); details: TRKA; 1 uM; read-out: Percent Control (%)
T2 construct: purchased DiscoverX
Summary of the method: as §1

[3] = molecular target: T3, scanMAX Kinase assay panel (Homo sapiens, UniProt Q8TDX7); details: NEK7; 1 uM; read-out: Percent Control (%)
T3 construct: purchased DiscoverX
Summary of the method: as §1

[4] = molecular target: T4, scanMAX Kinase assay panel (Homo sapiens, UniProt Q9UEW8); details: STK39; 1 uM; read-out: Percent Control (%)
T4 construct: purchased DiscoverX
Summary of the method: as §1

[5] = molecular target: T5, scanMAX Kinase assay panel (Homo sapiens, UniProt Q8IWQ3); details: BRSK2; 1 uM; read-out: Percent Control (%)
T5 construct: purchased DiscoverX
T5 sequence (Q8IWQ3 1-736): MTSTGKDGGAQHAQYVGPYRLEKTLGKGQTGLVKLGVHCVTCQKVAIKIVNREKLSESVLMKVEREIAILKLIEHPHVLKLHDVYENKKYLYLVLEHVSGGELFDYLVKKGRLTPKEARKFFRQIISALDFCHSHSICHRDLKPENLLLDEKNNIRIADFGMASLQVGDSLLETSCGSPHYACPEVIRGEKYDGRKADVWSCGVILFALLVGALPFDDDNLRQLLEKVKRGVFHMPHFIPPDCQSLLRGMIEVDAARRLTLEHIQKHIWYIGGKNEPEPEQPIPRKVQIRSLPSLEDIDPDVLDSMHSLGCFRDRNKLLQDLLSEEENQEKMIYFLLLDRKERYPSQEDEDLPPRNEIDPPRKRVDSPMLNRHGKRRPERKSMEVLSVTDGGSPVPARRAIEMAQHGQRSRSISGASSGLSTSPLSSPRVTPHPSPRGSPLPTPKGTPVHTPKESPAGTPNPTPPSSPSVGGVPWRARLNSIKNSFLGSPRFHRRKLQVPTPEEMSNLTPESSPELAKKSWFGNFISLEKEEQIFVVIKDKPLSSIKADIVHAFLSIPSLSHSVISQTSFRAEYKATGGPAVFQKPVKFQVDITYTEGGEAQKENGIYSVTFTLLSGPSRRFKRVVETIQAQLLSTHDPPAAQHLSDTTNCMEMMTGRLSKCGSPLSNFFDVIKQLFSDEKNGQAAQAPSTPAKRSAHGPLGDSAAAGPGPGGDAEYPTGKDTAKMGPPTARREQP
Summary of the method: as §1

[6] = molecular target: T6, scanMAX Kinase assay panel (Homo sapiens, UniProt Q8IU85); details: CAMK1D; 1 uM; read-out: Percent Control (%)
T6 construct: purchased DiscoverX
Summary of the method: as §1

[7] = molecular target: T7, scanMAX Kinase assay panel (Homo sapiens, UniProt Q9P286); details: PAK7; 1 uM; read-out: Percent Control (%)
T7 construct: purchased DiscoverX
Summary of the method: as §1

[8] = molecular target: T8, scanMAX Kinase assay panel (Homo sapiens, UniProt P54753); details: EPHB3; 1 uM; read-out: Percent Control (%)
T8 construct: purchased DiscoverX
T8 sequence (P54753 34-998): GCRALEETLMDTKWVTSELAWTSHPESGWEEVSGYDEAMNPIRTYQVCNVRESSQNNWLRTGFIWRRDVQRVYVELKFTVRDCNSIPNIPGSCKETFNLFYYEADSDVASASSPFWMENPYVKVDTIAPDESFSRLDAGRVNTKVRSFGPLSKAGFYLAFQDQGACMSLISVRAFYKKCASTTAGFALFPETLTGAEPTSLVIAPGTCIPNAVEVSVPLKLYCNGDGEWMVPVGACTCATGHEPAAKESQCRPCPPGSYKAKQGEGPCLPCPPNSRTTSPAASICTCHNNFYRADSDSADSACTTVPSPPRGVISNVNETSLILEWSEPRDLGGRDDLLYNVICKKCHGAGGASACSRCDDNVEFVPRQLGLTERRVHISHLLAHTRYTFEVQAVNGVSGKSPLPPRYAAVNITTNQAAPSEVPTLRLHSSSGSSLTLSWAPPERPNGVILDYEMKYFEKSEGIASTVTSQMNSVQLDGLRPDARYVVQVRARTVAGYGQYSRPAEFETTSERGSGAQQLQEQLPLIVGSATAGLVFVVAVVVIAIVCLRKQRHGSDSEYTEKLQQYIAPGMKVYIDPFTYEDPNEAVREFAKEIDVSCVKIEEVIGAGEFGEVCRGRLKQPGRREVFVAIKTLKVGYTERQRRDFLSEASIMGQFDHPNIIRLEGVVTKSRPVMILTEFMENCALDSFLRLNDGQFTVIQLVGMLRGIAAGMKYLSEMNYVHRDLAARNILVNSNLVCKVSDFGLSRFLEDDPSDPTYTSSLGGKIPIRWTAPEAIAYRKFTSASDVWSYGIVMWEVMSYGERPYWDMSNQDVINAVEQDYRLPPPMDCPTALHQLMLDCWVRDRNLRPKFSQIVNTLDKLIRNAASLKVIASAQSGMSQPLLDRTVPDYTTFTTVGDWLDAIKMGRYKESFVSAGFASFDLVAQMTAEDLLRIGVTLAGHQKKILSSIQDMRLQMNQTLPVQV
Summary of the method: as §1

[9] = molecular target: T9, scanMAX Kinase assay panel (Homo sapiens, UniProt Q8NEB9); details: VPS34; 1 uM; read-out: Percent Control (%)
T9 construct: purchased DiscoverX
Summary of the method: as §1

[10] = molecular target: T10, scanMAX Kinase assay panel (Homo sapiens, UniProt Q9UK32); details: 1 uM, read-out: Percent Control (%)
T10 construct: purchased DiscoverX
Summary of the method: as §1

[11] = molecular target: T11, scanMAX Kinase assay panel (Homo sapiens, UniProt P41240); details: CSK; 1 uM; read-out: Percent Control (%)
T11 construct: purchased DiscoverX
Summary of the method: as §1

[12] = molecular target: T12, scanMAX Kinase assay panel (Homo sapiens, UniProt P10721, D816H); details: KIT (D816H); 1 uM; read-out: Percent Control (%)
T12 construct: purchased DiscoverX
Summary of the method: as §1

T11 sequence (P41240 whole entry): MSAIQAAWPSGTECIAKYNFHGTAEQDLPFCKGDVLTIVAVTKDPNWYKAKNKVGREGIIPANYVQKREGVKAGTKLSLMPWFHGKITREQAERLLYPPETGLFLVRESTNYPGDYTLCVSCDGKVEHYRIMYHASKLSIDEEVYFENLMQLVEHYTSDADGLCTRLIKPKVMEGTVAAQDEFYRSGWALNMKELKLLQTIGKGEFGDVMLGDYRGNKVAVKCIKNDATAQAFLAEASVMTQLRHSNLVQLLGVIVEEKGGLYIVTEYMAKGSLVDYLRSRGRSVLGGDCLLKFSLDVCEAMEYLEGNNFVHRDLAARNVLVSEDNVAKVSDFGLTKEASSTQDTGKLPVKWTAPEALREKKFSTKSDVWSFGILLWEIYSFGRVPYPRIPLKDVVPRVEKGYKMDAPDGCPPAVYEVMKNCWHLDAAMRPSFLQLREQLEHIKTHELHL
T9 sequence (Q8NEB9 whole entry): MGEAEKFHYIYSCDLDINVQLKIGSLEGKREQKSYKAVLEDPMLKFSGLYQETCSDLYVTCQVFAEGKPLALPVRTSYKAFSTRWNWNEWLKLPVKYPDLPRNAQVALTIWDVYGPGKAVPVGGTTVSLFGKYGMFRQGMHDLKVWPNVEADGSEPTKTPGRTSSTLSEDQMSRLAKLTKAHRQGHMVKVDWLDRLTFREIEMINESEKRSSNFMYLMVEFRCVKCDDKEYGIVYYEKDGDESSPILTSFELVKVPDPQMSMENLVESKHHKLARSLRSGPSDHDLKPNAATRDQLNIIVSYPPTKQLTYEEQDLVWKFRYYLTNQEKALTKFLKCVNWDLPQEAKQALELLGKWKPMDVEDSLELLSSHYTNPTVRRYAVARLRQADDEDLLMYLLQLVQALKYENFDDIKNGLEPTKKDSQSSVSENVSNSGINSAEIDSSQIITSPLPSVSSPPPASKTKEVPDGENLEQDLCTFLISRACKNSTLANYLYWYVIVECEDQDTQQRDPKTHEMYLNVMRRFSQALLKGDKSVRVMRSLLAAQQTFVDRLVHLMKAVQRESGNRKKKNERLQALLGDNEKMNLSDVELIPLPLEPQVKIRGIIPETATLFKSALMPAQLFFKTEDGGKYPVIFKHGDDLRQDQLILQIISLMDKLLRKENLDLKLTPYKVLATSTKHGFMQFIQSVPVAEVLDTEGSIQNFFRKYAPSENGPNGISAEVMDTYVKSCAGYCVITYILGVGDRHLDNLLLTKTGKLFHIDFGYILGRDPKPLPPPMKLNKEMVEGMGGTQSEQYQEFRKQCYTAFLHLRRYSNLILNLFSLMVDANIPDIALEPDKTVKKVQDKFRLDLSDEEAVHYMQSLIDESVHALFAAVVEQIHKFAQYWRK
T3 sequence (Q8TDX7 whole entry): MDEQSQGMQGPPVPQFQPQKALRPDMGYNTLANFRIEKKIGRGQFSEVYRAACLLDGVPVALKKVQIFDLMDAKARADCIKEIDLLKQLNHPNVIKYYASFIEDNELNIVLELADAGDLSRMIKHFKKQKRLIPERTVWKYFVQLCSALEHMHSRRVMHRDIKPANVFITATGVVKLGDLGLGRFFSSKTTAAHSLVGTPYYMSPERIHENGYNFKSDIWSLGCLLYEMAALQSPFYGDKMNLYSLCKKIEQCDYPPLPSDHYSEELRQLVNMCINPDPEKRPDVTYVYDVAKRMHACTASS
T6 sequence (Q8IU85 whole entry): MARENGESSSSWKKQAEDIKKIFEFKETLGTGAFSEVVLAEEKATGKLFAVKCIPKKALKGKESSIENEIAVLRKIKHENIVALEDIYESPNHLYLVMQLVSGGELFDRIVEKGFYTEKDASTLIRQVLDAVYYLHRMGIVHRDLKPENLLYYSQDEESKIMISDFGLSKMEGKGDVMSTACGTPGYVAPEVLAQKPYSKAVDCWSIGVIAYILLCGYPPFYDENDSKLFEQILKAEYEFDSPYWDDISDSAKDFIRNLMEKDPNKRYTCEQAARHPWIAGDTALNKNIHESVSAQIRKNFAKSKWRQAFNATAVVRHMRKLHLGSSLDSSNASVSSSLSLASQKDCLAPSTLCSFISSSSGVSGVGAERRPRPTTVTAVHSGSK
T12 sequence (P10721 26-976 D816H): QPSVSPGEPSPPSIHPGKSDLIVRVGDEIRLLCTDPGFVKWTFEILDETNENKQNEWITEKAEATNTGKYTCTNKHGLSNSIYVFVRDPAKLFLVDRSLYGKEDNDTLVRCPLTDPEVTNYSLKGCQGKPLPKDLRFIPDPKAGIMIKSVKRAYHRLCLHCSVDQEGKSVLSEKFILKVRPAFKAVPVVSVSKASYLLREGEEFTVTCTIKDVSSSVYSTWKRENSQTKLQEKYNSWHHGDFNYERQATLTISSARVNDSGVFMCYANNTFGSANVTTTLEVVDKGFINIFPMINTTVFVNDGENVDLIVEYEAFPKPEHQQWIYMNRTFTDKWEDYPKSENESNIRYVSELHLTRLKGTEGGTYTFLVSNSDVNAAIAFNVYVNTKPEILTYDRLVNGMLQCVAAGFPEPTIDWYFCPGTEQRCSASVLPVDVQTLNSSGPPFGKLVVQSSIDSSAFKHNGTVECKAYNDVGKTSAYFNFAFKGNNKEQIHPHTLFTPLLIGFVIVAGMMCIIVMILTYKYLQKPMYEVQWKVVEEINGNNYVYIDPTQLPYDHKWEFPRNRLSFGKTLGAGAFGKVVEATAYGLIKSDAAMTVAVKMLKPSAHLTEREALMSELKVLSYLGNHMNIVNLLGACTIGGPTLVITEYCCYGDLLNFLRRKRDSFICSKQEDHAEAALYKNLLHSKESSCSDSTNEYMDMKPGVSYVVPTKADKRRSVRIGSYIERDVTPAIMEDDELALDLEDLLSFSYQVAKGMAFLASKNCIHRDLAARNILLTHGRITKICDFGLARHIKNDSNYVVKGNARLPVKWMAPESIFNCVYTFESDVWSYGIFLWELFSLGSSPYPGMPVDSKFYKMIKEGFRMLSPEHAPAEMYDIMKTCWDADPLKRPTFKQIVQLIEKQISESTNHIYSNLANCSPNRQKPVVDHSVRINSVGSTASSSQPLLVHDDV
T2 sequence (P04629 33-796): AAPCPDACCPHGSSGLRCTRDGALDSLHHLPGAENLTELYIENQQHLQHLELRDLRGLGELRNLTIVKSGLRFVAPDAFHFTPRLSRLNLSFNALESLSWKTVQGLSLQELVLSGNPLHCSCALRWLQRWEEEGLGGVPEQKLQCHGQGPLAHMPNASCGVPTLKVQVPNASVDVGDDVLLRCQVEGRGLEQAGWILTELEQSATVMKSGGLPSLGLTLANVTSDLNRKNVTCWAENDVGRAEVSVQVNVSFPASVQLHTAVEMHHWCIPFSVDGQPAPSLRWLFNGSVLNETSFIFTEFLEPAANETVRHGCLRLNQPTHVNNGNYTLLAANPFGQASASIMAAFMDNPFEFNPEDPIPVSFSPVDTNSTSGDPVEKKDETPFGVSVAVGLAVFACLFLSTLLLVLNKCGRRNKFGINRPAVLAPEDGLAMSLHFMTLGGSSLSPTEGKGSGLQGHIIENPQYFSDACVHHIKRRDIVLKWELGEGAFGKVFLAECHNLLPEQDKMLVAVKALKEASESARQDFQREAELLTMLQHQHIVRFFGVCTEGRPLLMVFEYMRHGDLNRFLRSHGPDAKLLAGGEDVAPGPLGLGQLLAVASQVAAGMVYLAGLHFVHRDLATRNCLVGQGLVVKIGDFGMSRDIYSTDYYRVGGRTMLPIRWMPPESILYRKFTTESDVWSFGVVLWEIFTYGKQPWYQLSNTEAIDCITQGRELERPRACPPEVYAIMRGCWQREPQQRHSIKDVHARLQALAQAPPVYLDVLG
T10 sequence (Q9UK32 whole entry): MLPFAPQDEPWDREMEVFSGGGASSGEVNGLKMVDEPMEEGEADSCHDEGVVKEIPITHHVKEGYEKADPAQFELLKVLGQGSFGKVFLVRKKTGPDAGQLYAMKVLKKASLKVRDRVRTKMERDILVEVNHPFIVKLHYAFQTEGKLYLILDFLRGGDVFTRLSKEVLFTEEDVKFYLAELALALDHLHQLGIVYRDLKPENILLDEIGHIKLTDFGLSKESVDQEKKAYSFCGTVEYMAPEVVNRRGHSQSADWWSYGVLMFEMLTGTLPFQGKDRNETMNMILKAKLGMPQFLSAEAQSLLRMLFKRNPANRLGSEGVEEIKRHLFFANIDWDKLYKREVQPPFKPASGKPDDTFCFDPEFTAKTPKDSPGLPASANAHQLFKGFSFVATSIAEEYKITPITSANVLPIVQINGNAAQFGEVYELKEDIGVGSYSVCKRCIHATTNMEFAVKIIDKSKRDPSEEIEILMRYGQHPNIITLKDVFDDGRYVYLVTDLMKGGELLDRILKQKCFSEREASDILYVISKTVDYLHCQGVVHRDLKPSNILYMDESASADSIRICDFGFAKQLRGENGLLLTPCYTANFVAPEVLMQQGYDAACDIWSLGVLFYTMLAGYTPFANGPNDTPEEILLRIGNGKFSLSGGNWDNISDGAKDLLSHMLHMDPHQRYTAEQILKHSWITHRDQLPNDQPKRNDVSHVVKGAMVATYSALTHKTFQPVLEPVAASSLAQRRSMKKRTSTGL

| Structure (SMILES) | remaining binding at 1 µM [1] | remaining binding at 1 µM [2] | remaining binding at 1 µM [3] | remaining binding at 1 µM [4] | remaining binding at 1 µM [5] | remaining binding at 1 µM [6] | remaining binding at 1 µM [7] | remaining binding at 1 µM [8] | remaining binding at 1 µM [9] | remaining binding at 1 µM ([10]; RSK4 (Kin.Dom.1-N-terminal)) | remaining binding at 1 µM ([10]; RSK4 (Kin.Dom.2-C-terminal)) | remaining binding at 1 µM [11] | remaining binding at 1 µM [12] |
| --- | --- | --- | --- | --- | --- | --- | --- | --- | --- | --- | --- | --- | --- |
| Cc1ccc(C(=O)Nc2ccc(CN3CCN(C)CC3)c(C(F)(F)F)c2)cc1C#Cc1cnc2c(Nc3cnn(C)c3)cccn12 [Example 1, 4-methyl-3-((8-((1-methyl-1H-pyrazol-4-yl)amino)imidazo[1,2-a]pyridin-3-yl)ethynyl)-N-(4-((4-methylpiperazin-1-yl)methyl)-3-(trifluoromethyl)phenyl)benzamide] | 99% | 0% | 71% | 97% | 96% | 65% | 100% | 47% | 100% | 81% | 59% | 2% | 7% |
| Cc1cn(-c2cc(NC(=O)c3ccc(C)c(C#Cc4cnc5c(Nc6cnn(C)c6)cccn45)c3)cc(C(F)(F)F)c2)cn1 [Example 12, 4-methyl-N-(3-(4-methyl-1H-imidazol-1-yl)-5-(trifluoromethyl)phenyl)-3-((8-((1-methyl-1H-pyrazol-4-yl)amino)imidazo[1,2-a]pyridin-3-yl)ethynyl)benzamide] | 100% | 1% | 82% | 87% | 87% | 82% | 100% | 100% | 96% | 93% | 68% | 1% | 70% |
| Cc1ccc(NC(=O)C2(C(=O)Nc3ccc(F)cc3)CC2)cc1C#Cc1cnc2c(Nc3cnn(C(C)C)c3)cccn12 [Example 78] | 100% | 100% | 100% | 89% | 100% | 98% | 100% | 100% | 80% | 93% | 98% | 98% | 63% |

From patent US10870647B2, “Imidazopyridine derivative, method for preparing same, and pharmaceutical composition containing same as active ingredient for preventing or treating cancer” (DAEGU-GYEONGBUK MEDICAL INNOVATION FOUNDATION, priority 2016, dated 2020)
